Measurements published in ChEMBL document CHEMBL1139085, “Synthesis and biological evaluation of fenobam analogs as mGlu5 receptor antagonists” (Bioorg Med Chem Lett, 2007).
Active and inactive are the calls of the source. The rule behind the calls is not given here.

How the values were obtained:
[1] = Metabolic stability in rat liver microsomes; format: ADME, Microsome
[2] = target: T1, Metabotropic glutamate receptor 5 (Homo sapiens, UniProt P41594); test: Antagonist activity at mGluR5 by FLIPR; format: functional
T1 sequence (P41594 whole entry): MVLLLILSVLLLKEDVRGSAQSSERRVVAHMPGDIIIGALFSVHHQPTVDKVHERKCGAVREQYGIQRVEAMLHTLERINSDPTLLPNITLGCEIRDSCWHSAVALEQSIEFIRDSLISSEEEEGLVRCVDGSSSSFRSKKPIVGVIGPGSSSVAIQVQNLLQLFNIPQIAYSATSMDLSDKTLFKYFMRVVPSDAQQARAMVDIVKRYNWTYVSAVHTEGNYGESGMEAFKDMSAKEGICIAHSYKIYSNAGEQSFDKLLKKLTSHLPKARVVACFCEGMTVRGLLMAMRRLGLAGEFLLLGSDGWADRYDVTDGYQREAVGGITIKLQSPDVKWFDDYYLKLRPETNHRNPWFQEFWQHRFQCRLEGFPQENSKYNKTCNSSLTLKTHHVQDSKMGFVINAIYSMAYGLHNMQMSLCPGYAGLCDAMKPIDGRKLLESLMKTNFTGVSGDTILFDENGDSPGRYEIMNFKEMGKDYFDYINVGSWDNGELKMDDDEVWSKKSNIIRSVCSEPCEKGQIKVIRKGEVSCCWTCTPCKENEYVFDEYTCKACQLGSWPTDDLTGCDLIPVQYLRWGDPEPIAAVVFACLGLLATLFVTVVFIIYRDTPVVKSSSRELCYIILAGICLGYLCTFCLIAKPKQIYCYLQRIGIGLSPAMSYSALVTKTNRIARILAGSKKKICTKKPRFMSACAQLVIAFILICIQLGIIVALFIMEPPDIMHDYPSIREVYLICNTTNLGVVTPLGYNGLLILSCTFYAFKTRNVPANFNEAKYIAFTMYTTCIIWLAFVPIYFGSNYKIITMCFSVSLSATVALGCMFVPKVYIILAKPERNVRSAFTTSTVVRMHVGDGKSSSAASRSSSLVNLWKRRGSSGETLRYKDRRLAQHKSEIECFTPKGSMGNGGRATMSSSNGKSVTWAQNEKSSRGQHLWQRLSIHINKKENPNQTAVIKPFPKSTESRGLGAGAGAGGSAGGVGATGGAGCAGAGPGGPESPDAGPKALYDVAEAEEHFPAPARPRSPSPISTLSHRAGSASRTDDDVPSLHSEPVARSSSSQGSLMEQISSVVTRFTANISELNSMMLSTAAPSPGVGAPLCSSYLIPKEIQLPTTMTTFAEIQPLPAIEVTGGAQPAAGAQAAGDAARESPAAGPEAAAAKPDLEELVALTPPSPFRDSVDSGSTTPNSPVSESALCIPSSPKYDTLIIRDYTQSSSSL

[3] = Metabolic stability in human liver microsomes; format: ADME, Microsome
[4] = target: T1, Metabotropic glutamate receptor 5; test: Displacement of [3H]MPEP from mGlu5 receptor
Rattus norvegicus [5] = species on record: Rattus norvegicus; test: Anxiolytic-like activity in rat assessed as reversal of foot shock-induced suppression of lever pressing by conflict test; format: functional, organism-based
Rattus norvegicus [6] = species on record: Rattus norvegicus; test: Anxiolytic-like activity in rat assessed as reversal of foot shock-induced suppression of lever pressing by conditioned emotional response test; format: functional, organism-based
Rattus norvegicus [7] = test: Anxiolytic-like activity in rat assessed as increase in drinking time at 30 mg/kg, po by Vogel conflict test; format: functional, organism-based; design: dose 30 mg/kg
Rattus norvegicus [8] = test: Anxiolytic-like activity in rat assessed as behavioral disruption at 3 to 30 mg/kg, po by conflict test; format: functional, organism-based
Rattus norvegicus [9] = test: Anxiolytic-like activity in rat assessed as behavioral disruption at 3 to 30 mg/kg, po by conditioned emotional response test; format: functional, organism-based

microsomal CLint [1] [µL/min/mg] | IC50 [2] [µM] | microsomal CLint [3] [µL/min/mg] | IC50 [4] [µM] | Compound | further results
5 | > 5 | 20 | > 5 | CN1CC(=O)N/C1=N\C(=O)Nc1cccnc1 | 
22 | 1.1 | 47 | 0.587 | CN1CC(=O)N/C1=N\C(=O)Nc1ccccn1 | 
 | 3.3 |  | 1.36 | CN1CC(=O)N/C1=N\C(=O)Nc1ccccc1 | 
 | 1.02 |  | 0.286 | Cc1cccc(C#Cc2ccc(Cl)cc2)n1 | 
 | 0.4 |  | 0.039 | Cc1cccc(C#Cc2ccccn2)n1 | 
 | > 5 |  | > 5 | CN1CC(=O)N/C1=N\C(=O)Nc1ccc(Cl)cc1 | 
9 | > 5 | 11 | 1.12 | CN1CC(=O)N/C1=N\C(=O)Nc1ccncc1 | 
 | 6.8 |  | 2.52 | CN1CC(=O)N/C1=N\C(=O)Nc1ccccc1Cl | 
27 | 0.434 | 55 | 0.078 | CN1CC(=O)N/C1=N\C(=O)Nc1csc(Cl)c1 | Activity (Rattus norvegicus [5]): Dose-dependent effect; Activity (Rattus norvegicus [6]): Dose-dependent effect; Activity (Rattus norvegicus [7]): Active; Activity (Rattus norvegicus [8]): inactive; Activity (Rattus norvegicus [9]): inactive
 | 0.007 |  | 0.003 | Cc1cccc(C#Cc2cccc(Cl)c2)n1 | 
 | 0.015 |  | 0.005 | Cc1cccc(C#Cc2ccccc2Cl)n1 | 
 | 4.02 |  | 0.7 | CN1CC(=O)N/C1=N\C(=O)Nc1ccsc1 | 
 | 0.213 |  | 0.026 | Cc1cccc(C#Cc2ccncc2)n1 | 
 | 0.066 |  | 0.01 | Cc1cccc(C#Cc2cccnc2)n1 | 
44 | 0.038 | 100 | 0.061 | CN1CC(=O)N=C1NC(=O)Nc1cccc(Cl)c1 [FENOBAM ANHYDROUS] | 
